# Reference: patent publication US8183271B2, “Tetrazole derivatives and their use for the treatment of cardiovascular diseases” (Bayer Intellectual Property GmbH, priority 2005, dated 2012)
# Molecular target: T1, Heme-free sGC (recombinant soluble guanylate cyclase) (Rattus norvegicus, UniProt P20595)
# T1 construct: made in house
# T1 sequence (P20595 1-619): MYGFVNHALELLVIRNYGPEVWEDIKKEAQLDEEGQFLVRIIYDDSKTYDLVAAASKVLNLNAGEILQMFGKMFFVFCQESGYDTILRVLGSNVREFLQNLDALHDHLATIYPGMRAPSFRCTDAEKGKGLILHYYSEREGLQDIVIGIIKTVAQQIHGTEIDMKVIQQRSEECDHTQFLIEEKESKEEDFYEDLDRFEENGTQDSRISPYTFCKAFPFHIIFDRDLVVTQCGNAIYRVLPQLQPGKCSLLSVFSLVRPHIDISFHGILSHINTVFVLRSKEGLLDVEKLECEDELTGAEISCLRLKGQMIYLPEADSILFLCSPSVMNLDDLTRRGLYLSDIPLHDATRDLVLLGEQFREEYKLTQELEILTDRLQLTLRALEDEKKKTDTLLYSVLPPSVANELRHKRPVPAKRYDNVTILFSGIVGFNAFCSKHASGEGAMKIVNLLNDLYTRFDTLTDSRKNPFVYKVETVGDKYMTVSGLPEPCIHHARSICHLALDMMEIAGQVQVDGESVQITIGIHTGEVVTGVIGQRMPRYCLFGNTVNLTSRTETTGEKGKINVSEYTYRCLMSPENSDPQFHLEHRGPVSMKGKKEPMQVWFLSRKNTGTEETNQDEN
# T1 sequence (P19686 1-690 partner): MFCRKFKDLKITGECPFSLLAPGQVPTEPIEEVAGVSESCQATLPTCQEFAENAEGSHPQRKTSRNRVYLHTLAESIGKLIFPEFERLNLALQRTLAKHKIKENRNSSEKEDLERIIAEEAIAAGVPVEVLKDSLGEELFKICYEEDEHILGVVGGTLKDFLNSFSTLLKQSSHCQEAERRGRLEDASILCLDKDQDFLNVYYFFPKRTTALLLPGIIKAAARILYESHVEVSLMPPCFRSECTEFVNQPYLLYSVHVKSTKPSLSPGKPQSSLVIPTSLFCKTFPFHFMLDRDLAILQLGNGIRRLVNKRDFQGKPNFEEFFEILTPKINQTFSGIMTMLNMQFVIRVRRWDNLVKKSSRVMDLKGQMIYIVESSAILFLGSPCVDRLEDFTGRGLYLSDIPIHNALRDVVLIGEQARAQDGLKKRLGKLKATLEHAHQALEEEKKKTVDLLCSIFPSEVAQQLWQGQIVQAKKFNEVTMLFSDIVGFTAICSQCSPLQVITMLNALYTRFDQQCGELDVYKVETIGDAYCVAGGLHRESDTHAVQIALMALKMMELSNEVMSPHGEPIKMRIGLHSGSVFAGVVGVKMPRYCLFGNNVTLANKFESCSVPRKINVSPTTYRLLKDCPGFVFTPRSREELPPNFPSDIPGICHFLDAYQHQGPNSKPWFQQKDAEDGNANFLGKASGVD
# Assay: Stimulation of recombinant soluble guanylate cyclase (sGC) in vitro, heme-free enzyme
# Type: biochemical
# Details: 10 μM ODQ, 0.0 μM Example 6
# Protocol: Investigations on the stimulation of recombinant soluble guanylate cyclase (sGC) by the compounds according to the invention with and without sodium nitroprusside, and with and without the heme-dependent sGC inhibitor 1H-1,2,4-oxadiazole-(4,3a)-quinoxalin-1-one (ODQ) are carried out by the method described in detail in the following reference: M. Hoenicka, E. M. Becker, H. Apeler, T. Sirichoke, H. Schroeder, R. Gerzer and J.-P. Stasch, “Purified soluble guanylyl cyclase expressed in a baculovirus/Sf9 system: Stimulation by YC-1, nitric oxide, and […]”, J. Mol. Med. 77 (1999), 14-23. The heme-free guanylate cyclase is obtained by adding Tween 20 to the sample buffer (0.5% in the final concentration).
# (§1) The activation of sGC by a test substance is reported as n-fold stimulation of the basal activity.
row,Stimulation (n-fold) Heme-free sGC with ODQ alone [n-fold],SMILES
1,1.2,"O=c1onc2cnc3ccccc3n12 [ODQ, 1H-1,2,4-oxadiazole-(4,3a)-quinoxalin-1-one, reference compound]"

# System: saphenous artery rings
# Assay: Vasorelaxant effect in vitro (phenylephrine-contracted artery rings)
# Type: cell-based, Rabbits
# Details: Oryctolagus cuniculus, rabbit saphenous artery rings, contraction induced by phenylephrine
# Protocol: Rabbits are anesthetized and sacrificed by intravenous injection of thiopental sodium (about 50 mg/kg) and exsanguinated. The saphenous artery is removed and divided into rings 3 mm wide. The rings are mounted singly on in each case a pair of triangular hooks open at the end and made of 0.3 mm-thick special wire (Remanium®). Each ring is placed under an initial tension in 5 ml organ baths with Krebs-Henseleit solution which is at 37° C., is gassed with 95% O2/5% CO2 and has the following composition: NaCl 119 mM; KCl 4.8 mM; CaCl2×2H2O 1 mM; MgSO4×7H2O 1.4 mM; KH2PO4 1.2 mM; NaHCO3 25 mM; glucose 10 mM; bovine serum albumin 0.001%. The force of contraction is detected with Statham UC2 cells, amplified and digitized via A/D converters (DAS-1802 HC, Keithley Instruments, Munich) and recorded in parallel on chart recorders. Contractions are induced by addition of phenylephrine.
# After several (generally 4) control cycles, the substance to be investigated is added in each further run in increasing dosage, and the height of the contraction achieved under the influence of the test substance is compared with the height of the contraction reached in the last preceding run. The concentration necessary to reduce the contraction reached in the preceding control by 50% is calculated from this (IC50). The standard application volume is 5 μl. The proportion of DMSO in the bath solution corresponds to 0.1%.
row,IC50 [nM],SMILES
1,682,"CC(C)(C)c1ccc(COc2ccccc2/C=C/C(CCc2ccc(-c3nnn[nH]3)cc2)Cc2ccc(C(=O)O)cc2)c(Cl)c1 (single isomer, unassigned) [Example 3, 4-((3E)-4-{2-[(4-tert-Butyl-2-chlorobenzyl)oxy]phenyl}-2-{2-[4-(1H-tetrazol-5-yl)phenyl]ethyl}but-3-en-1-yl)benzoic acid]"
2,1320,"O=C(O)c1ccc(CCC(/C=C/c2ccccc2OCCCCCc2ccccc2)Cc2ccc(-c3nnn[nH]3)cc2)cc1 (single isomer, unassigned) [Example 14, 4-{(4E)-5-{2-[(5-Phenylpentyl)oxy]phenyl}-3-[4-(1H-tetrazol-5-yl)benzyl]pent-4-en-1-yl}benzoic acid]"
3,1990,"CC(C)(C)c1ccc(COc2ccccc2/C=C/C(CCCCC(=O)O)CCc2ccc(-c3nnn[nH]3)cc2)cc1 (single isomer, unassigned) [Example 29, (7E)-8-{2-[(4-tert-Butylbenzyl)oxy]phenyl}-6-{2-[4-(1H-tetrazol-5-yl)phenyl]ethyl}oct-7-enoic acid]"
4,760,"CC(C)(C)c1ccc(COc2ccccc2/C=C/C(CCCCC(=O)O)Cc2ccc(-c3nnn[nH]3)cc2)cc1 (single isomer, unassigned) [Example 36, (7E)-8-{2-[(4-tert-Butylbenzyl)oxy]phenyl}-6-[4-(1H-tetrazol-5-yl)benzyl]oct-7-enoic acid]"
5,5800,"COc1ccc(CCc2ccc(F)cc2/C=C\C(CCc2ccc(C(=O)O)cc2)Cc2ccc(-c3nnn[nH]3)cc2)cc1 (centres unmarked) [Example 17, 4-{(4Z)-5-{5-Fluoro-2-[2-(4-methoxyphenyl)ethyl]phenyl}-3-[4-(1H-tetrazol-5-yl)benzyl]pent-4-en-1-yl}benzoic acid]"
6,890,"COc1ccc(CCc2ccc(F)cc2/C=C/C(CCc2ccc(C(=O)O)cc2)Cc2ccc(-c3nnn[nH]3)cc2)cc1 (centres unmarked) [Example 18, 4-{(4E)-5-{5-Fluoro-2-[2-(4-methoxyphenyl)ethyl]phenyl}-3-[4-(1H-tetrazol-5-yl)benzyl]pent-4-en-1-yl}benzoic acid]"
7,372,"O=C(O)c1ccc(CCC(/C=C/c2ccccc2OCc2ccc(-c3ccc(C(F)(F)F)cc3)cc2)Cc2ccc(-c3nnn[nH]3)cc2)cc1 (centres unmarked) [Example 21, 4-[(4E)-3-[4-(1H-Tetrazol-5-yl)benzyl]-5-(2-{[4′-(trifluoromethyl)biphenyl-4-yl]-methoxy}phenyl)pent-4-en-1-yl]benzoic acid]"
8,567,O=C(O)c1ccc(CCC(/C=C/c2ccccc2OCc2ccc(OC(F)(F)F)cc2)CCCCc2nnn[nH]2)cc1 (centres unmarked) [Example 38]
9,150,O=C(O)c1ccc(CCC(/C=C/c2ccccc2OCc2cc(C(F)(F)F)cc(C(F)(F)F)c2)CCCCc2nnn[nH]2)cc1 (centres unmarked) [Example 39]

# Same assay, conditions: rabbit saphenous artery rings, contraction induced by phenylephrine
row,IC50 [nM],SMILES
1,2510,"CC(C)(C)c1ccc(COc2ccccc2/C=C/C(CCc2ccc(-c3nnn[nH]3)cc2)Cc2ccc(C(=O)O)cc2)cc1 (single isomer, unassigned) [Example 5, 4-((3E)-4-{2-[(4-tert-Butylbenzyl)oxy]phenyl}-2-{2-[4-(1H-tetrazol-5-yl)phenyl]ethyl}but-3-en-1-yl)benzoic acid]"
2,3890,"CC(C)(C)c1ccc(COc2ccccc2/C=C/C(CCc2ccc(C(=O)O)cc2)Cc2ccc(-c3nnn[nH]3)cc2)cc1 (single isomer, unassigned) [Example 23, 4-{(4E)-5-{2-[(4-tert-Butylbenzyl)oxy]phenyl}-3-[4-(1H-tetrazol-5-yl)benzyl]pent-4-en-1-yl}benzoic acid]"
3,102,"CC(C)(C)c1ccc(COc2ccccc2/C=C/C(CCc2ccc(C(=O)O)cc2)Cc2ccc(-c3nnn[nH]3)cc2)cc1 (single isomer, unassigned) [Example 24, 4-{(4E)-5-{2-[(4-tert-Butylbenzyl)oxy]phenyl}-3-[4-(1H-tetrazol-5-yl)benzyl]pent-4-en-1-yl}benzoic acid]"
4,559,"CC(C)(C)c1ccc(COc2ccccc2/C=C/C(CCCCc2nnn[nH]2)CCc2ccc(C(=O)O)cc2)cc1 (single isomer, unassigned) [Example 26, 4-[3-((E)-2-{2-[(4-tert-Butylbenzyl)oxy]phenyl}vinyl)-7-(1H-tetrazol-5-yl)heptyl]benzoic acid]"
5,9.7,"CC(C)(C)c1ccc(COc2ccccc2/C=C/C(CCCCc2nnn[nH]2)CCc2ccc(C(=O)O)cc2)cc1 (single isomer, unassigned) [Example 27, 4-[3-((E)-2-f{2-[(4-tert-Butylbenzyl)oxy]phenyl}vinyl)-7-(1H-tetrazol-5-yl)heptyl]benzoic acid]"

# Molecular target: T2, Heme-containing sGC (recombinant soluble guanylate cyclase) (Rattus norvegicus, UniProt P20595)
# T2 construct: made in house
# T2 sequence (P20595 1-619): T1 sequence (P20595 1-619)
# T2 sequence (P19686 1-690 partner): T1 sequence (P19686 1-690 partner)
# Assay: Stimulation of recombinant soluble guanylate cyclase (sGC) in vitro, heme-containing enzyme
# Type: biochemical
# Details: 0.1 μM DEA/NO, 0.0 μM Example 6
# Text: Hoenicka, E. M. Becker, H. Apeler, T. Sirichoke, H. Schroeder, R. Gerzer and J.-P. Stasch, “Purified soluble guanylyl cyclase expressed in a baculovirus/Sf9 system: Stimulation by YC-1, nitric oxide, and carbon oxide”, J. Mol. Med. 77 (1999), 14-23. The heme-free guanylate cyclase is obtained by adding Tween 20 to the sample buffer (0.5% in the final concentration).
# as §1
row,SMILES,Stimulation (n-fold) Heme-containing sGC by DEA/NO alone [n-fold]
1,"CCN(CC)[N+]([O-])=NO [DEA/NO, 2-(N,N-diethylamino)diazenolate 2-oxide, reference compound]",64.1

# Same assay, conditions: 10 μM ODQ, 0.0 μM Example 6
row,Stimulation (n-fold) Heme-containing sGC with ODQ alone [n-fold],SMILES
1,2.4,"O=c1onc2cnc3ccccc3n12 [ODQ, 1H-1,2,4-oxadiazole-(4,3a)-quinoxalin-1-one, reference compound]"
